# Source: ChEMBL document CHEMBL2440117, “Improved inhibitory activities against tumor-cell migration and invasion by 15-benzylidene substitution derivatives of andrographolide” (Bioorg Med Chem Lett, 2013)
# pIC50: −log10 of the molar value. Calls of active or inactive are those of the source. The rule behind the calls is not given here.
# How the values were obtained:
# A549 [1] = test: Antimigratory activity against human A549 cells at 10 uM after 12 to 48 hrs by wound-healing assay relative to control; assay type: functional
# 5637 [2] = test: Antimigratory activity against human 5637 cells at 5 uM after 12 to 48 hrs by wound-healing assay relative to control; assay type: functional
# SGC-7901 [3] = test: Downregulation of MMP-2 protein expression in human SGC7901 cells at 10 uM after 72 hrs by microscopic analysis; assay type: functional, cell-based
# SGC-7901 [4] = test: Cytotoxicity against human SGC7901 cells assessed as growth inhibition at 10 uM after 48 hrs by MTT assay relative to control; assay type: functional, cell-based
# HT-29 [5] = test: Antimigratory activity against human HT-29 cells at 10 uM after 12 to 48 hrs by wound-healing assay relative to control; assay type: functional
# SGC-7901 [6] = test: Downregulation of MMP-9 mRNA expression in human SGC7901 cells at 1.25 to 2.5 uM after 48 hrs by semi-quantitative RT-PCR analysis; assay type: functional, cell-based
# PC-3 [7] = test: Antimigratory activity against human PC3 cells at 10 uM after 12 to 48 hrs by wound-healing assay relative to control; assay type: functional
# SGC-7901 [8] = test: Downregulation of MMP-2 mRNA expression in human SGC7901 cells at 1.25 uM after 48 hrs by semi-quantitative RT-PCR analysis; assay type: functional, cell-based
# ECa-109 [9] = test: Cytotoxicity against human EC109 cells assessed as growth inhibition at 10 uM after 48 hrs by MTT assay; assay type: functional, cell-based
# HT-29 [10] = test: Cytotoxicity against human HT-29 cells assessed as growth inhibition at 10 uM after 48 hrs by MTT assay; assay type: functional, cell-based
# SGC-7901 [11] = test: Downregulation of MMP-7 mRNA expression in human SGC7901 cells at 1.25 to 10 uM after 48 hrs by semi-quantitative RT-PCR analysis; assay type: functional, cell-based
# SGC-7901 [12] = test: Antimigratory activity against human SGC7901 cells after 12 to 48 hrs by wound-healing assay; assay type: functional, cell-based
# SGC-7901 [13] = test: Downregulation of MMP-9 protein expression in human SGC7901 cells at 2.5 to 10 uM after 72 hrs by microscopic analysis; assay type: functional, cell-based
# SGC-7901 [14] = test: Downregulation of MMP-7 protein expression in human SGC7901 cells at 2.5 to 10 uM after 72 hrs by microscopic analysis; assay type: functional, cell-based
# PC-3 [15] = test: Cytotoxicity against human PC3 cells assessed as growth inhibition at 10 uM after 48 hrs by MTT assay relative to control; assay type: functional; conditions: for inhibition of growth at 10 µM: PC-3, 48 h, read-out: GI
# 5637 [16] = test: Cytotoxicity against human 5637 cells assessed as growth inhibition at 5 uM after 48 hrs by MTT assay relative to control; assay type: functional; conditions: Homo sapiens, 5637, 48 h; read-out: GI
# A549 [17] = test: Cytotoxicity against human A549 cells assessed as growth inhibition at 10 uM after 48 hrs by MTT assay; assay type: functional, cell-based
# [18] = (§1) Antimigratory activity against human EC109 cells at 10 uM after 12 to 48 hrs by wound-healing assay relative to control; assay type: functional; conditions: ECa-109
# SGC-7901 [19] = test: Antiinvasive activity against human SGC7901 cells after 24 hrs by matrigel invasion assay; assay type: functional, cell-based; conditions: SGC-7901, 24 h
# A549 [20] = test: Antimigratory activity against human A549 cells after 12 to 48 hrs by wound-healing assay; assay type: functional, cell-based
# SGC-7901 [21] = test: Antimigratory activity against human SGC7901 cells at 10 uM after 12 to 48 hrs by wound-healing assay relative to control; assay type: functional
# PC-3 [22] = test: Antimigratory activity against human PC3 cells after 12 to 48 hrs by wound-healing assay; assay type: functional, cell-based
# A549 [23] = test: Antimigratory activity against human A549 cells at 5 uM after 12 to 48 hrs by wound-healing assay relative to control; assay type: functional
# 5637 [24] = test: Cytotoxicity against human 5637 cells assessed as growth inhibition at 10 uM after 48 hrs by MTT assay relative to control; assay type: functional, cell-based
# HT-29 [25] = test: Antimigratory activity against human HT-29 cells after 12 to 48 hrs by wound-healing assay; assay type: functional, cell-based
# 5637 [26] = test: Antimigratory activity against human 5637 cells at 10 uM after 12 to 48 hrs by wound-healing assay relative to control; assay type: functional
# [27] = Antimigratory activity against human EC109 cells at 5 uM after 12 to 48 hrs by wound-healing assay relative to control; assay type: functional; conditions: ECa-109
# 5637 [28] = test: Antimigratory activity against human 5637 cells after 12 to 48 hrs by wound-healing assay; assay type: functional, cell-based
# SGC-7901 [29] = test: Antiinvasive activity against human SGC7901 cells at 5 to 10 uM after 24 hrs by matrigel invasion assay relative to control; assay type: functional, cell-based
# SGC-7901 [30] = test: Antiinvasive activity against human SGC7901 cells at 10 uM after 24 hrs by matrigel invasion assay relative to control; assay type: functional; conditions: SGC-7901, 24 h
# SGC-7901 [31] = test: Downregulation of MMP-9 mRNA expression in human SGC7901 cells at 10 uM after 48 hrs by semi-quantitative RT-PCR analysis; assay type: functional, cell-based
# SGC-7901 [32] = test: Downregulation of MMP-7 mRNA expression in human SGC7901 cells after 48 hrs by semi-quantitative RT-PCR analysis; assay type: functional, cell-based
# SGC-7901 [33] = test: Effect on MMP-2 mRNA expression in human SGC7901 cells at 10 uM after 48 hrs by semi-quantitative RT-PCR analysis; assay type: functional, cell-based
# 5637 [34] = test: Antimigratory activity against human 5637 cells at 2.5 uM after 12 to 48 hrs by wound-healing assay; assay type: functional, cell-based
# ECa-109 [35] = test: as §1; assay type: functional
SMILES,inhibition at 5 µM 5637 [2] [%],growth inhibition (GI) (SGC-7901 [4]),growth inhibition (GI) (ECa-109 [9]),growth inhibition (GI) (HT-29 [10]),inhibition of growth at 5 µM 5637 [16] [%],growth inhibition (GI) (A549 [17]),growth inhibition (GI) (PC-3 [15]),growth inhibition (GI) 5637 [24],inhibition (SGC-7901 [21]),inhibition (PC-3 [7]),also measured
C=C1CC[C@@H]2[C@](C)(CO)[C@H](O)CC[C@@]2(C)[C@@H]1/C=C/C1=CC(=C/c2ccc(Cl)cc2)/OC1=O,16.4,inactive,inactive,inactive,25.3,inactive,–,–,–,–,inhibition at 10 µM (A549 [1]): 41.4%; Activity (SGC-7901 [3]): Active; inhibition at 10 µM (HT-29 [5]): 48.1%; Activity (SGC-7901 [6]): Active; inhibition at 10 µM (PC-3 [7]): 58.5%; Activity (SGC-7901 [8]): Active; Activity (SGC-7901 [11]): Active; pIC50 (SGC-7901 [12]): 5.37; Activity (SGC-7901 [13]): Active; Activity (SGC-7901 [14]): Active; inhibition of growth at 10 µM (PC-3 [15]): 11.3%; inhibition at 10 µM [18]: 40.7%; pIC50 (SGC-7901 [19]): 5.34
C=C1CC[C@@H]2[C@](C)(CO)[C@H](O)CC[C@@]2(C)[C@@H]1/C=C/C1=CC(=C/c2ccc(F)cc2)/OC1=O,19.5,inactive,inactive,inactive,32.5,inactive,inactive,–,–,–,pIC50 (A549 [20]): 5.14; inhibition at 10 µM (HT-29 [5]): 39.5%; inhibition at 10 µM (PC-3 [7]): 34.3%; pIC50 (SGC-7901 [12]): 5.10; inhibition at 10 µM [18]: 34.2%
C=C1CC[C@@H]2[C@](C)(CO)[C@H](O)CC[C@@]2(C)[C@@H]1/C=C/C1=CC(=C/c2ccccc2)/OC1=O,–,inactive,inactive,inactive,–,inactive,inactive,inactive,–,–,inhibition at 10 µM (SGC-7901 [21]): 30.3%; pIC50 (PC-3 [22]): 4.88; inhibition at 5 µM (A549 [23]): 45.1%; pIC50 (HT-29 [25]): 4.32; inhibition at 10 µM 5637 [26]: 44.8%; inhibition at 5 µM [27]: 45.3%
C=C1CC[C@@H]2[C@](C)(COC(=O)CCC(=O)O)[C@H](OC(=O)CCC(=O)O)CC[C@@]2(C)[C@@H]1/C=C/C1=CCOC1=O,–,inactive,–,–,–,–,inactive,inactive,inactive,inactive,inhibition 5637 [26]: inactive
C=C1CC[C@@H]2[C@](C)(COC(=O)c3cccnc3)[C@H](OC(=O)c3cccnc3)CC[C@@]2(C)[C@@H]1/C=C/C1=CC(=C/c2ccc(Cl)cc2)/OC1=O,–,inactive,–,–,–,–,inactive,inactive,–,inactive,inhibition at 10 µM (SGC-7901 [21]): 22.3%; pIC50 5637 [28]: 5.09
C=C1CC[C@@H]2[C@](C)(COC(=O)c3cccnc3)[C@H](OC(=O)c3cccnc3)CC[C@@]2(C)[C@@H]1/C=C/C1=CCOC1=O,–,inactive,–,–,–,–,inactive,inactive,inactive,inactive,inhibition at 10 µM 5637 [26]: 31.7%
C=C1CC[C@@H]2[C@](C)(CO)[C@H](O)CC[C@@]2(C)[C@@H]1/C=C/C1=CC(=C/c2ccc(OC)cc2)/OC1=O,17.9,inactive,inactive,inactive,33.7,inactive,inactive,–,–,–,inhibition at 10 µM (SGC-7901 [21]): 48.5%; inhibition at 10 µM (A549 [1]): 35.1%; inhibition at 10 µM (HT-29 [5]): 38.7%; inhibition at 10 µM (PC-3 [7]): 34%; inhibition at 10 µM [18]: 41.3%
C=C1CC[C@@H]2[C@](C)(COC(=O)CCC(=O)O)[C@H](OC(=O)CCC(=O)O)CC[C@@]2(C)[C@@H]1/C=C/C1=CC(=C/c2ccc(Cl)cc2)/OC1=O,–,inactive,–,–,–,–,inactive,inactive,inactive,inactive,inhibition 5637 [26]: inactive
C=C1CC[C@@H]2[C@]3(C)COCO[C@@H]3CC[C@@]2(C)[C@@H]1C/C=C1/C(=O)OC[C@H]1O,36.3,inactive,–,–,25.3,–,inactive,–,inactive,inactive,–
C=C1CC[C@@H]2[C@](C)(CO)[C@H](O)CC[C@@]2(C)[C@@H]1/C=C/C1=CC(=C/c2ccc(Br)cc2)/OC1=O,27.9,inactive,–,–,33.6,–,–,–,–,–,inhibition at 10 µM (PC-3 [7]): 83.8%; pIC50 (SGC-7901 [12]): 5.07; inhibition of growth at 10 µM (PC-3 [15]): 40.2%
C[C@@]12COCO[C@@H]1CC[C@]1(C)[C@@H]2CC[C@@]2(CO2)[C@H]1C/C=C1/C(=O)OC[C@H]1O,18.4,inactive,–,–,32.9,–,inactive,–,inactive,inactive,–
C=C1CC[C@@H]2[C@](C)(CO)[C@H](O)CC[C@@]2(C)[C@@H]1C/C=C1/C(=O)OC[C@H]1O [ANDROGRAPHOLIDE],34.5,inactive,inactive,inactive,44,inactive,inactive,–,–,inactive,inhibition at 10 µM (SGC-7901 [21]): 20.8%; inhibition (SGC-7901 [29]): Active; inhibition at 5 µM (A549 [23]): 28.6%; inhibition at 10 µM (SGC-7901 [30]): 17.7%; Activity (SGC-7901 [31]): Active; inhibition (HT-29 [5]): inactive; Activity (SGC-7901 [32]): Dose-dependent effect; Activity (SGC-7901 [33]): inactive; inhibition 5637 [34]: inactive; inhibition (ECa-109 [35]): inactive
C[C@]1(CO)[C@H]2CC[C@@]3(CO3)[C@@H](/C=C/C3=CCOC3=O)[C@]2(C)CC[C@H]1O,–,inactive,–,–,–,–,inactive,inactive,inactive,inactive,inhibition at 10 µM 5637 [26]: 22.5%
C=C1CC[C@@H]2[C@](C)(CO)[C@H](O)CC[C@@]2(C)[C@@H]1/C=C/C1=CCOC1=O,–,inactive,–,–,–,–,inactive,inactive,inactive,inactive,inhibition at 10 µM 5637 [26]: 44.7%
